# Laboratory results: ChEMBL document CHEMBL1201862, “PubChem BioAssay data set” (2004)
#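 Values below derive from 48-hour exposures of cells grown in 96-well plates, with endpoints linearly interpolated between the two concentrations bracketing the appropriate inhibition level. The concentration for 50% growth inhibition is given as GI50.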 Activity calls are given as the source filed them. Cut-off read from the data, not from the text of the source: active = GI50 up to about 1.1 µM and inactive = higher.
# Experiments:
# Assay in all cases: NCI-60 cell line screen, 48 h
# SF-268 = tested on: SF-268
# NCI/ADR-RES = tested on: NCI/ADR-RES
# K562 = tested on: K562
# HCC 2998 = tested on: HCC 2998
# A549 = tested on: A549
# NCI-H460 = tested on: NCI-H460
# M19-MEL = tested on: M19-MEL
# SK-MEL-28 = tested on: SK-MEL-28
# RXF 393 = tested on: RXF 393
# COLO 205 = tested on: COLO 205
# OVCAR-5 = tested on: OVCAR-5
# HL-60 = tested on: HL-60
# IGROV-1 = tested on: IGROV-1
# DLD-1 = tested on: DLD-1
# U-251 = tested on: U-251
# SNB-78 = tested on: SNB-78
# HCT-116 = tested on: HCT-116
# SN12C = tested on: SN12C
# UO-31 = tested on: UO-31
# MOLT-4 = tested on: MOLT-4
# SW-620 = tested on: SW-620
# HOP-92 = tested on: HOP-92
# SF-295 = tested on: SF-295
# MCF7 = tested on: MCF7
# SK-MEL-2 = tested on: SK-MEL-2
# KM12 = tested on: KM12
# A498 = tested on: A498
# SK-MEL-5 = tested on: SK-MEL-5
# SNB-75 = tested on: SNB-75
# SNB-19 = tested on: SNB-19
# OVCAR-4 = tested on: OVCAR-4
# UACC-62 = tested on: UACC-62
# LOX IMVI = tested on: LOX IMVI
# NCI-H226 = tested on: NCI-H226
# OVCAR-3 = tested on: OVCAR-3
# NCI-H23 = tested on: NCI-H23
# DMS-273 = tested on: DMS-273
# KM-20L2 = tested on: KM-20L2
# OVCAR-8 = tested on: OVCAR-8
# HOP-18 = tested on: HOP-18
# XF498 = tested on: XF498
# RPMI-8226 = tested on: RPMI-8226
# CCRF-CEM = tested on: CCRF-CEM
# SK-OV-3 = tested on: SK-OV-3
# NCI-H522 = tested on: NCI-H522
# CAKI-1 = tested on: CAKI-1
# HOP-62 = tested on: HOP-62
# DMS-114 = tested on: DMS-114
# UACC-257 = tested on: UACC-257
# SF-539 = tested on: SF-539
# EKVX = tested on: EKVX
# HT-29 = tested on: HT-29
# HCT-15 = tested on: HCT-15
structure (smiles),measurement,setting,value
COc1cc(C2(c3ncc[nH]3)SSSCC2O)ccc1O (stereo not drawn),GI50,SF-268,15.8 µM (inactive)
same,GI50,NCI/ADR-RES,> 40.6 µM (inactive)
same,GI50,K562,23.4 µM (inactive)
same,GI50,HCC 2998,27.9 µM (inactive)
same,GI50,A549,> 57.4 µM (inactive)
same,GI50,NCI-H460,> 46.2 µM (inactive)
same,GI50,M19-MEL,12.2 µM (inactive)
same,GI50,SK-MEL-28,> 100 µM (inactive)
same,GI50,RXF 393,30.1 µM (inactive)
same,GI50,COLO 205,25.6 µM (inactive)
same,GI50,OVCAR-5,> 100 µM (inactive)
same,GI50,HL-60,29.6 µM (inactive)
same,GI50,IGROV-1,47.2 µM (inactive)
same,GI50,DLD-1,58.5 µM (inactive)
same,GI50,U-251,> 56.2 µM (inactive)
same,GI50,SNB-78,34.2 µM (inactive)
same,GI50,HCT-116,32.6 µM (inactive)
same,GI50,SN12C,47.8 µM (inactive)
same,GI50,UO-31,65.9 µM (inactive)
same,GI50,MOLT-4,16.5 µM (inactive)
same,GI50,SW-620,33 µM (inactive)
same,GI50,HOP-92,6.25 µM (inactive)
same,GI50,SF-295,39.1 µM (inactive)
same,GI50,MCF7,39.6 µM (inactive)
same,GI50,SK-MEL-2,> 100 µM (inactive)
same,GI50,KM12,> 100 µM (inactive)
same,GI50,A498,79.3 µM (inactive)
same,GI50,SK-MEL-5,11.7 µM (inactive)
same,GI50,SNB-75,> 100 µM (inactive)
same,GI50,SNB-19,> 87.7 µM (inactive)
same,GI50,OVCAR-4,22.2 µM (inactive)
same,GI50,UACC-62,22.6 µM (inactive)
same,GI50,LOX IMVI,19.1 µM (inactive)
same,GI50,NCI-H226,66.4 µM (inactive)
same,GI50,OVCAR-3,32.2 µM (inactive)
same,GI50,NCI-H23,60.7 µM (inactive)
same,GI50,DMS-273,30.1 µM (inactive)
same,GI50,KM-20L2,> 92.5 µM (inactive)
same,GI50,OVCAR-8,36.9 µM (inactive)
same,GI50,HOP-18,> 66.4 µM (inactive)
same,GI50,XF498,> 71 µM (inactive)
same,GI50,RPMI-8226,22.6 µM (inactive)
same,GI50,CCRF-CEM,11.9 µM (inactive)
same,GI50,SK-OV-3,66.4 µM (inactive)
same,GI50,NCI-H522,29.4 µM (inactive)
same,GI50,CAKI-1,86.1 µM (inactive)
same,GI50,HOP-62,> 66.4 µM (inactive)
same,GI50,DMS-114,18.2 µM (inactive)
same,GI50,UACC-257,18.4 µM (inactive)
same,GI50,SF-539,> 59 µM (inactive)
same,GI50,EKVX,94 µM (inactive)
same,GI50,HT-29,38 µM (inactive)
same,GI50,HCT-15,33.1 µM
